14 compounds from patent publication US20060079453A1, “Hla binding peptides and their uses” (priority 2002, published 2006) can be followed below.

Where two headings read alike, the source gives them in different places. No end group written: not given here.

Holding throughout (assay): biochemical
Format in all cases: binding

In assay [1] the target is HLA-DR DRB1*0301 (DR3) (Homo sapiens, UniProt P01903+P01911, A100K/A102G/A103R/A169T/F55Y/I96L/K41T/L162R/M171V/P40S/Q125H/Q178H/Q39Y/R42S/S66N/T106N/T262R/W38E/Y61H).
Sequence of HLA-DR DRB1*0301 (DR3) (P01903 26-254 limits assumed, other chains not shown): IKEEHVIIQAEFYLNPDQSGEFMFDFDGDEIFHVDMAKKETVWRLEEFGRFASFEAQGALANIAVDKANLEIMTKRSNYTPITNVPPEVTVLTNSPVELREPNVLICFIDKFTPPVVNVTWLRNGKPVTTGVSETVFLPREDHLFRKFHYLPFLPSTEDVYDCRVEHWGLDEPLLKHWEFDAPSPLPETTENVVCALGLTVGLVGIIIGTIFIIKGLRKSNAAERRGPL
For assay [2], the target named is HLA-DR DRB3*0101 (DR52) (Homo sapiens, UniProt P01903+P79483).
The target in assay [3] is HLA-DR DRB1*0701 (DR7) (Homo sapiens, UniProt P01903+P01911, A100R/A102G/A103Q/D57E/D86V/E43K/F76Y/K127E/L162R/M171V/P40G/Q125H/Q99D/R33Q/R42Y/R54Q/S133A/S66F/T210M/V115G/Y107V/Y59L/Y89S). Particulars: DRB1 *0701.
Assay [4] concerns the target HLA-DR DRB5*0101 (DR51) (Homo sapiens, UniProt P01903+Q30154).
Assay [5] concerns the target HLA-DR DRB4*0101 (DR53) (Homo sapiens, UniProt P01903+P13762, G164S).
Assay [6] concerns the target HLA-DR DRB1*1101 (DR11) (Homo sapiens, UniProt P01903+P01911, A100R/A169T/A87E/I96F/K41T/L162R/M171V/P40S/Q125H/Q178H/Q39Y/Q99D/R42S/S66Y/T262R/V115G/W38E).
Assay [7] deals with HLA-DR DRB1*1501 (DR15) (Homo sapiens, UniProt P01903+P01911).
In assay [8] the target is HLA-DR DRB1*0101 (DR1) (Homo sapiens, UniProt P01903+P01911, A100R/D57E/F55L/F60I/F76Y/I96L/L162R/M171V/P40L/Q125E/R42F/V115G/Y59C). Particulars: DRB1 *0101.
Assay [9] deals with HLA-DR DRB1*1302 (DR13) (Homo sapiens, UniProt P01903+P01911, A100E/A169T/K41T/L162R/M171V/P40S/Q125H/Q178H/Q39Y/Q99D/R42S/S66N/T262R/V115G/W38E/Y61H).
Sequence of HLA-DR DRB1*1302 (DR13) (P01903 26-254 limits assumed, other chains not shown): as above
In assay [10] the target is HLA-DR DRB1*0401 (DR4) (Homo sapiens, UniProt P01903+P01911, A100K/A169T/F76Y/I96L/K127E/L162R/M171V/N62H/P40V/Q125Y/R42H/S133A/S149N/S66Y/V115G/V209L/W38E). Particulars: DRB1 *0401.

Sequence of HLA-DR DRB1*1101 (DR11) (P01903 26-254 limits assumed, other chains not shown): as above

Consider QAKKEKLNIWSEDNADSGQ, for which the IC50 in [1] was over 900 µM; in assay [2] it was over 5.56 µM; in [3] it was over 250 µM.
For the compound HQAISPRTLNSPAIF, the IC50 in assay [4] (read-out: DRB5 *0101) is over 200 µM; in assay [5] (read-out: DRB4 *0101) it was 0.13 µM; in assay [6] (read-out: DRB1 *1101) it was 33.7 µM; in assay [7] (read-out: DRBI *1501), 8.11 µM; in [2] (read-out: DRB3 *0101) it was over 83.3 µM.
Turning to `C[C@@H](O)[C@H](NC(=O)[C@H](CCCCN)NC(=O)[C@H](CCC(=O)O)NC(=O)[C@H](CCC(=O)O)NC(=O)CNC(=O)[C@H](Cc1ccccc1)NC(=O)[C@H](CCCNC(=N)N)NC(=O)[C@H](Cc1ccccc1)NC(=O)[C@H](CO)NC(=O)[C@H](CCC(=O)O)NC(=O)[C@H](CCC(=O)O)NC(=O)[C@@H]1CCCN1C(=O)[C@@H]1CCCN1)C(=O)N[C@H](C(=O)N1CCC[C@H]1C(=O)N[C@@H](CO)C(=O)O)[C@@H](C)O`, the IC50 is over 2.86 µM in assay [4] (DRB5 *0101); over 900 µM in assay [1]; over 10 µM in assay [6] (DRB1 *1101); over 2.5 µM in [8]; over 14.3 µM in assay [2]; over 12.5 µM in assay [3].
As for YGRILHYLKAKEDSH [YORILHYLKAKBDSH], the IC50 in [4] (DRB5 *0101) turned out to be 0.039 µM; in [5] (DRB4 *0101) it was 0.14 µM; in assay [9] (DRBI *1302) it was 2.78 µM; in assay [6] (DRB1 *1101), 0.812 µM; in [7] (DRBI *1501) it was 0.016 µM; in assay [2] it was 455 µM.
On to `CSCC[C@H](NC(=O)[C@@H](N)Cc1c[nH]c2ccccc12)C(=O)N[C@@H](Cc1ccc(O)cc1)C(=O)N[C@@H](Cc1ccc(O)cc1)C(=O)N[C@@H](Cc1c[nH]cn1)C(=O)NCC(=O)N[C@@H](CCC(N)=O)C(=O)N[C@@H](CCCNC(=N)N)C(=O)N[C@@H](Cc1c[nH]cn1)C(=O)N[C@@H](CO)C(=O)N[C@@H](CC(=O)O)C(=O)N[C@@H](CCC(=O)O)C(=O)N[C@@H](Cc1c[nH]cn1)C(=O)N[C@@H](Cc1c[nH]cn1)C(=O)N[C@@H](Cc1c[nH]cn1)C(=O)O`, for which the IC50 in assay [4] (DRB5 *0101) is over 5 µM; in assay [1], over 900 µM; in [6] (DRB1 *1101), over 10 µM; in assay [8], at least 50 µM; in assay [2], over 7.69 µM; in assay [3], over 250 µM.
On to `CC[C@H](C)[C@H](NC(=O)[C@@H](NC(=O)[C@@H]1CCCN1C(=O)CN)C(C)C)C(=O)N1CCC[C@H]1C(=O)N[C@@H](CCC(N)=O)C(=O)N[C@@H](CC(=O)O)C(=O)N[C@@H](Cc1c[nH]c2ccccc12)C(=O)N[C@@H](CO)C(=O)N[C@H](C(=O)N[C@@H](CCC(=O)O)C(=O)N[C@@H](CS)C(=O)N[C@@H](CCSC)C(=O)N[C@H](C(=O)N[C@H](C(=O)O)[C@@H](C)O)[C@@H](C)O)[C@@H](C)O`, for which the IC50 is 52.1 µM in assay [1], 0.961 µM in assay [5] (DRB4 *0101) and 20.3 µM in [2].
With GGVLVNEILNHMKRA, the IC50 in assay [4] (read-out: DRB5 *0101) is 0.0087 µM; in [5] (read-out: DRB4 *0101) it was 0.0058 µM; in assay [9] (read-out: DRBI *1302), 0.049 µM; in [6] (read-out: DRB1 *1101) it was 0.255 µM; in [7] (read-out: DRBI *1501) it was 0.576 µM; in assay [2] (read-out: DRB3 *0101), 8.12 µM.
Consider TAEYGDKWLDAKSTWYGKPT, for which the IC50 in assay [10] is over 0.667 µM; in assay [1], over 30 µM; in assay [5] (DRB4 *0101), 10 µM; in assay [2], over 20 µM; in assay [3], 3.13 µM.
Turning to AFGSMAKKGEEQNVRSAGEL, the IC50 was over 0.667 µM in assay [10]; over 30 µM in [1]; 1.82 µM in [6] (DRB1 *1101); over 33.3 µM in assay [2]; over 12.5 µM in assay [3].
As for VRVEILRNFYVINRL, the IC50 in assay [4] (read-out: DRB5 *0101) is 0.485 µM; in assay [5] (read-out: DRB4 *0101), 0.187 µM; in assay [9] (read-out: DRBI *1302), 0.0058 µM; in assay [6] (read-out: DRB1 *1101) it was 0.504 µM; in assay [7] (read-out: DRBI *1501) it was 0.00104 µM; in assay [2] (read-out: DRB3 *0101), 80.4 µM.
For GAGPKDNGGACGYKDVDKAP, the IC50 in assay [10] is over 0.667 µM; in assay [1], over 30 µM; in assay [2], over 20 µM; in assay [3] it was over 12.5 µM.
With IAKVPPGPNITAEYGDKWLD, the IC50 in [10] was over 0.667 µM; in assay [1] it was over 30 µM; in assay [2], over 20 µM; in [3], over 12.5 µM.
For AVGLPSIPVHPIGYY, the IC50 in assay [4] (read-out: DRB5 *0101) was 38.5 µM; in [5] (read-out: DRB4 *0101) it was 5.39 µM; in assay [6] (read-out: DRB1 *1101), 33.3 µM; in [7] (read-out: DRBI *1501), 0.518 µM; in [2] (read-out: DRB3 *0101) it was over 11.8 µM.
Regarding AKSTWYGKPTGAGPKDNGGA, the IC50 in assay [1] was over 30 µM; in [5] (DRB4 *0101) it was 10 µM; in [2], over 20 µM; in assay [3], over 12.5 µM.
